Tests used:
Aspergillus brasiliensis = conditions: when used in cosmetics; Daily Chemical Industry 2015, 45:269; cited from earlier work
Pseudomonas aeruginosa = conditions: when used in cosmetics; Daily Chemical Industry 2015, 45:269; cited from earlier work
[1] = Solubility test c): 4-HAP + 3 wt. % 1,2-pentanediol (Hydrolite 5) + 5 wt. % glycerin in cold water; format: physicochemical
[2] = Solubility test d): 4-HAP + 3 wt. % 1,2-pentanediol (Hydrolite 5) + 5 wt. % glycerin in warm water; format: physicochemical; conditions: for dissolution result: heating up to 50° C. and cooling down while stirring; for crystals on storage: stored at 5° C. and room temperature, after 24 h
[3] = General properties: behaviour when put into water; format: physicochemical; conditions: solid put into water in a beaker
[4] = Solubility test e): 4-HAP + 5 wt. % 1,2-pentanediol (Hydrolite 5) in cold water; format: physicochemical; conditions: for dissolution result: after ca. 50 min
[5] = 0.5 wt. % 4-HAP + 3 wt. % 1,2-pentanediol + 5 wt. % glycerin
[6] = 1 wt. % 4-HAP + 3 wt. % 1,2-pentanediol + 5 wt. % glycerin
[7] = 0.5 wt. % 4-HAP + 5 wt. % 1,2-pentanediol
[8] = 1 wt. % 4-HAP + 5 wt. % 1,2-pentanediol

For CC(=O)c1ccc(O)cc1 [4-hydroxyacetophenone], the “ability to kill Aspergillus brasiliensis” value (Aspergillus brasiliensis) is given as “great ability to kill” and the “ability to restrain Pseudomonas aeruginosa” value (Pseudomonas aeruginosa) is given as “certain ability to restrain”.

In the case of CC(=O)c1ccc(O)cc1 [Example 3, 4-hydroxyacetophenone], the “storage time after which crystallization/precipitation” value [1, 5] is reported as 48 h, the “time until solved completely” value [1, 5] is reported as “ca. 50 min” and the “time until solved completely” value [1, 6] is reported as “ca. 50 min”. For the same compound, the crystallization/precipitation on storage ([1]; 1 wt. % 4-HAP + 3 wt. % 1,2-pentanediol + 5 wt. % glycerin, after 24 h of storage) was “no crystallization/precipitation”, the dissolution result [2, 5] was “solved completely” and the crystals on storage [2, 5] was “no crystals”. The dissolution result [2, 6] was “solved completely”, the crystals on storage [2, 6] was “no crystals” and the “behaviour when put into water” value [3] was “distributes on the surface and slowly falls to the ground of the beaker”. For the same compound, the “time until solved completely” value [4, 7] was “ca. 50 min”, the crystallization/precipitation on storage ([4]; 0.5 wt. % 4-HAP + 5 wt. % 1,2-pentanediol, after 24 h of storage) was “no crystallization/precipitation” and the “time until solved completely” value [4, 8] was “ca. 50 min”. For the same compound, the “storage time after which crystallization” value ([4]; 1 wt. % 4-HAP + 5 wt. % 1,2-pentanediol, stored at 5° C.) was 24 h.

In the case of CC(=O)c1ccc(O)cc1 [Example 4, 4-hydroxyacetophenone], the “storage time after which crystallization/precipitation” value [1, 5] is reported as 48 h, the “time until solved completely” value [1, 5] is reported as “ca. 50 min” and the dissolution result ([1]; 1 wt. % 4-HAP + 3 wt. % 1,2-pentanediol + 5 wt. % glycerin, after stirring for 60 min) is reported as “a few lumps of solid left undissolved”. The dissolution result [2, 5] was “solved completely”, the crystals on storage [2, 5] was “no crystals” and the dissolution result [2, 6] was “solved completely”. For the same compound, the crystals on storage [2, 6] was “no crystals”, the “behaviour when put into water” value [3] was “agglomerates and sinks to the ground” and the dissolution result [4, 7] was “a few little lumps of solid left undissolved”. The dissolution result [4, 8] was “lumps of solid left undissolved”.
